The conditions of the data set: 101.33 kPa, Liquid; for viscosity: Capillary tube (Ostwald / Ubbelohde) method; for mass density: Vibrating tube method.

Structures are written as SMILES. Numbers after ± are expanded uncertainties.

As a reminder, the viscosity is the internal friction of a fluid under shear. In general, mass density refers to mass per unit of volume. `CCCO` [propan-1-ol]: the viscosity reads like this: (293.15 K) 2.204 ± 0.1 mPa·s; (303.15 K) 1.513 ± 0.1 mPa·s; (313.15 K) 1.018 ± 0.1 mPa·s; (323.15 K) 0.79 ± 0.1 mPa·s. Besides, the mass density runs as follows: (293.15 K) 803.57 ± 0.15 kg/m3; (303.15 K) 795.53 ± 0.15 kg/m3; (313.15 K) 787.35 ± 0.15 kg/m3; (323.15 K) 778.98 ± 0.15 kg/m3; (333.15 K) 770.38 ± 0.16 kg/m3.

For the compound `CC(C)CO` [2-methyl-1-propanol], the viscosity by setting is: (293.15 K) 4.087 ± 0.1 mPa·s; (303.15 K) 2.877 ± 0.1 mPa·s; (313.15 K) 2.091 ± 0.1 mPa·s; (323.15 K) 1.576 ± 0.1 mPa·s; (333.15 K) 1.125 ± 0.1 mPa·s. Moreover, the mass density came out at 801.82 ± 0.24 kg/m3 (293.15 K); 794.06 ± 0.24 kg/m3 (303.15 K); 786.12 ± 0.24 kg/m3 (313.15 K); 777.94 ± 0.24 kg/m3 (323.15 K); 769.46 ± 0.24 kg/m3 (333.15 K).

As for `CC(C)O` [propan-2-ol], the viscosity is 2.362 ± 0.1 mPa·s (293.15 K); 1.762 ± 0.1 mPa·s (303.15 K); 1.2 ± 0.1 mPa·s (313.15 K); 0.938 ± 0.1 mPa·s (323.15 K); 0.604 ± 0.1 mPa·s (333.15 K). The mass density (293.15 K) was 785.35 ± 0.17 kg/m3; the mass density (303.15 K) is on record as 776.86 ± 0.17 kg/m3; the mass density (313.15 K) is 768.07 ± 0.17 kg/m3; the mass density (323.15 K) came to 758.89 ± 0.18 kg/m3; the mass density (333.15 K) turned out to be 749.25 ± 0.18 kg/m3.

As to `NCCCO` [3-amino-1-propanol], the viscosity by setting is: (293.15 K) 40.46 ± 0.27 mPa·s; (303.15 K) 23.98 ± 0.18 mPa·s; (313.15 K) 15.31 ± 0.14 mPa·s; (323.15 K) 10.22 ± 0.12 mPa·s; (333.15 K) 6.962 ± 0.11 mPa·s. Besides, the mass density (293.15 K) was found to be 987.65 ± 0.23 kg/m3; the mass density (303.15 K) came out at 979.65 ± 0.23 kg/m3; the mass density (313.15 K) worked out at 971.61 ± 0.23 kg/m3; the mass density (323.15 K) was 963.52 ± 0.23 kg/m3; the mass density (333.15 K) is recorded as 955.38 ± 0.23 kg/m3.

Values taken from the NIST ThermoML archive (doi:10.1021/je3011634).
